In this experiment the target is Recombinant human Cbl-b (aa 36-427) (Homo sapiens (Human), UniProt Q13191). Kind of experiment: Cbl-b Biochemical Assay (TR-FRET). To be noted: read-out: TR-FRET hCbl-b IC50. The procedure:
Recombinant human Cbl-b (aa 36-427) was expressed in E. coli, purified and biotinylated in vitro. The protein was diluted to 12 nM in freshly prepared assay buffer consisting of 50 mM HEPES, pH 7.0, 100 mM NaCl, 5 mM MgCl2, 0.01% Triton-X 100, 0.01% BSA and 1 mM DTT. Recombinant human Src (aa 254-536)-[…]-Zap-70 (aa 281-297) fusion protein was expressed in E. coli and purified. Protein was diluted in assay buffer to 2-5 nM and supplemented with ATP to 1 mM. Fluorescein-BODIPY labeled UBE[…]([…])-Ub was prepared by conjugating ubiquitin (Ub) labeled at its N-terminus with Fluorescein-BODIPY maleimide (ThermoFisher Catalog no B10250) to E. coli expressed and purified UBE[…]([…]) [see Dou et al Nature Structural and Molecular Biology 8: 982-987, 2013]. Recombinant human UBE2D2([…]) was expressed in E. coli, purified and ubiquitinated and Bodipy labelled in vitro. Protein was diluted to 200 nM in assay buffer without MgCl2 (or Cisbio PPI buffer). Streptavidin-Terbium was added to 2 nM and EDTA to 10 mM, to provide a binding assay mix. Compounds were dissolved in DMSO and diluted to prepare a ten-point dilution series. 100 nl of each compound concentration was dispensed in duplicate in a 384 well black assay plate using acoustic dispensing. Wells for maximum signal controls received 100 nl of DMSO only and wells for minimum signal controls received 100 nl of a reference inhibitor compound at a final assay concentration of […] to produce 100% inhibition. 5 μl of diluted Cbl-b enzyme was added to all wells of the assay plate and incubated at RT for 30-60 min. The enzyme assay was initiated by addition of 5 μl of Src-Zap/ATP mix to all wells, and the plate incubated at RT for 60 min. The enzyme reaction was terminated and the binding reaction was initiated by adding 10 μl of binding assay mix to all wells and incubating the plate at RT for 60 min prior to assay read. Final assay conditions consisted of 6 nM Cbl-b, 1-2.5 nM Src-Zap70, 0.5 mM ATP, 1% (v/v) DMSO (enzyme reaction) and 100 nM UBE2D2([…])-Ub-FL-BODIPY, 5 mM EDTA, 1 nM Streptavidin-Tb (binding reaction). The HTRF assay signal was measured at 520 nm on an Envision plate reader, with reference signal at 485 or 620 nm. Data was normalized using maximum and minimum assay controls: % Inhibition=100-(100*((maximum control)-unknown)/(maximum control-minimum control)). A 4-parameter dose-response equation was used to fit the normalized dose-response data and derive an IC50 for test compounds.
A general note: TR-FRET usually uses a lanthanide donor and a delayed reading to cut background.

The values below come from patent publication US12325697B2 (Nimbus Clio, Inc., priority 2021, dated 2025).

Sequence of Recombinant human Cbl-b (aa 36-427) (Q13191 36-427): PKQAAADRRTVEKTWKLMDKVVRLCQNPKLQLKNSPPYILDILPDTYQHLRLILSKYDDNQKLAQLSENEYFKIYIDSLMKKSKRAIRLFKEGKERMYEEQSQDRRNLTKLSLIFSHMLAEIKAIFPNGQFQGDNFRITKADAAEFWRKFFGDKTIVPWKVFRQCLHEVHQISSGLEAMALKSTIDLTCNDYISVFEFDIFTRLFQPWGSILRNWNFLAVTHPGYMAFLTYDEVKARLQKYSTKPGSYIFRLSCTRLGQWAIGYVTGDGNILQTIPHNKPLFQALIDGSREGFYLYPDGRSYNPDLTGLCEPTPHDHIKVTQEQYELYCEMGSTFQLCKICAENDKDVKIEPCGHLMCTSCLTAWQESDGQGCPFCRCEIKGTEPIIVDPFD

As for `CCNc1cc(-c2ccccc2-c2nncn2C)cc(N2Cc3c(cc(CN4CCC5(CC4)CC5)cc3C(F)(F)F)C2=O)n1` [AI-2, 6-((6-Azaspiro[2.5]octan-6-yl)methyl)-2-(6-(ethylamino)-4-(2-(4-methyl-4H-1,2,4-triazol-3-yl)phenyl)pyridin-2-yl)-4-(trifluoromethyl)isoindolin-1-one], the IC50 is no more than 200 nM.

Regarding `CCNc1cc(-c2c(-c3nncn3C)cnn2C)cc(N2Cc3c(cc(OCCN4CCCC4)cc3C(F)(F)F)C2=O)n1` [ACN-5, 2-(6-(Ethylamino)-4-(1-methyl-4-(4-methyl-4H-1,2,4-triazol-3-yl)-1H-pyrazol-5-yl)pyridin-2-yl)-6-(2-(pyrrolidin-1-yl)ethoxy)-4-(trifluoromethyl)isoindolin-1-one], the IC50 was no more than 200 nM.

With `Cn1cnnc1-c1cnn(C)c1-c1cc(Cl)nc(N2Cc3c(cccc3C(F)(F)F)C2=O)c1` [AAN-7, 2-(6-Chloro-4-(1-methyl-4-(4-methyl-4H-1,2,4-triazol-3-yl)-1H-pyrazol-5-yl)pyridin-2-yl)-4-(trifluoromethyl)isoindolin-1-one], the IC50 is 1000 to 10000 nM.

As to `Cc1conc1-c1ccccc1-c1cccc(N2Cc3c(cccc3C(F)(F)F)C2=O)c1` [AAZ-7, 2-(2′-(4-Methylisoxazol-3-yl)-[1,1′-biphenyl]-3-yl)-4-(trifluoromethyl)isoindolin-1-one], the half-inhibitory concentration (IC50) fell in the range of 1000 to 10000 nM.

With `CCNc1cc(-c2ccccc2-c2nncn2C)cc(N2Cc3c(cc(CN4CCO[C@@H](C)C4)cc3C(F)(F)F)C2=O)n1` [AL-1, (S)-2-(6-(Ethylamino)-4-(2-(4-methyl-4H-1,2,4-triazol-3-yl)phenyl)pyridin-2-yl)-6-((2-methylmorpholino)methyl)-4-(trifluoromethyl)isoindolin-1-one], the IC50 is no more than 200 nM.

As to `COC(=O)C1(c2cc(-c3ccccc3-c3nncn3C)cc(N3Cc4c(cccc4C(F)(F)F)C3=O)n2)CC1` [ACJ-6, Methyl 1-(4-(2-(4-methyl-4H-1,2,4-triazol-3-yl)phenyl)-6-(1-oxo-4-(trifluoromethyl)isoindolin-2-yl)pyridin-2-yl) cyclopropane-1-carboxylate], the IC50 lay in the range of 10000 to 50000 nM.

Consider `CCNc1cc(-c2c(-c3nncn3C)cnn2C)cc(N2Cc3c(cc(C(=O)N4CC[C@H](O)C4)cc3C(F)(F)F)C2=O)n1` [ACS-4, (S)-2-(6-(Ethylamino)-4-(1-methyl-4-(4-methyl-4H-1,2,4-triazol-3-yl)-1H-pyrazol-5-yl)pyridin-2-yl)-6-(3-hydroxypyrrolidine-1-carbonyl)-4-(trifluoromethyl)isoindolin-1-one], for which the IC50 is no more than 200 nM.

`Cn1cnnc1-c1cnn(C)c1-c1cc(O)nc(N2Cc3c(cccc3C(F)(F)F)C2=O)c1` [AAO-1, 2-(6-Hydroxy-4-(1-methyl-4-(4-methyl-4H-1,2,4-triazol-3-yl)-1H-pyrazol-5-yl)pyridin-2-yl)-4-(trifluoromethyl)isoindolin-1-one]: the IC50 was 10000 to 50000 nM.

Consider `COc1ccc(-c2ccccc2-c2nncn2C)cc1N1Cc2c(cccc2C(F)(F)F)C1=O` [Example G-4, 2-(4-Methoxy-2′-(4-methyl-4H-1,2,4-triazol-3-yl)-[1,1′-biphenyl]-3-yl)-4-(trifluoromethyl)isoindolin-1-one], for which the half-inhibitory concentration (IC50) lay in the range of 10000 to 50000 nM.

For the compound `CCNc1cc(-c2ccccc2-c2nncn2C)cc(N2Cc3c(cc(CN4CCC5(CC5)C4)cc3C(F)(F)F)C2=O)n1` [ABR-1, 6-((5-Azaspiro [2.4]heptan-5-yl)methyl)-2-(6-(ethylamino)-4-(2-(4-methyl-4H-1,2,4-triazol-3-yl)phenyl)pyridin-2-yl)-4-(trifluoromethyl)isoindolin-1-one], the IC50 is no more than 200 nM.

As to `C[C@@H]1CN(Cc2cc3c(c(C(F)(F)F)c2)CN(c2cccc(-c4ccccc4-c4nncn4C)c2)C3=O)CCO1` [Example X-2, (R)-2-(2′-(4-Methyl-4H-1,2,4-triazol-3-yl)-[1,1′-biphenyl]-3-yl)-6-((2-methylmorpholino)methyl)-4-(trifluoromethyl)isoindolin-1-one], the IC50 is no more than 200 nM.

On to `Cn1cnnc1-c1ccccc1-c1cc(NCCO)nc(N2Cc3c(cccc3C(F)(F)F)C2=O)c1` [ABT-2, 2-(6-((2-Hydroxyethyl)amino)-4-(2-(4-methyl-4H-1,2,4-triazol-3-yl)phenyl)pyridin-2-yl)-4-(trifluoromethyl)isoindolin-1-one], for which the IC50 is 200 to 1000 nM.

For `CCNc1cc(-c2c(-c3nncn3C)cnn2C)cc(N2Cc3c(cc(COC(C)C)cc3C(F)(F)F)C2=O)n1` [ACW-1, 2-(6-(Ethylamino)-4-(1-methyl-4-(4-methyl-4H-1,2,4-triazol-3-yl)-1H-pyrazol-5-yl)pyridin-2-yl)-6-(isopropoxymethyl)-4-(trifluoromethyl)isoindolin-1-one], the IC50 was no more than 200 nM.

For the compound `Cn1cnnc1-c1cnccc1-c1cccc(N2Cc3c(cccc3C(F)(F)F)C2=O)c1` [AAY-6, 2-[3-[3-(4-Methyl-1,2,4-triazol-3-yl)-pyridin-4-yl]-phenyl]-4-(trifluoromethyl)-3H-isoindol-1-one], the IC50 fell in the range of 1000 to 10000 nM.

As for `CCNc1cc(-c2ccccc2-c2nncn2C)cc(N2Cc3c(cc(CN4CCO[C@H](C)C4)cc3C(F)(F)F)C2=O)n1` [AN-1, (R)-2-(6-(Ethylamino)-4-(2-(4-methyl-4H-1,2,4-triazol-3-yl)phenyl)pyridin-2-yl)-6-((2-methylmorpholino)methyl)-4-(trifluoromethyl)isoindolin-1-one], the IC50 is no more than 200 nM.

Regarding `CCNc1cc(-c2c(-c3nncn3C)cnn2C)cc(N2Cc3c(cc(CN4CC(F)C4)cc3C(F)(F)F)C2=O)n1` [ABN-2, 2-(6-(Ethylamino)-4-(1-methyl-4-(4-methyl-4H-1,2,4-triazol-3-yl)-1H-pyrazol-5-yl)pyridin-2-yl)-6-((3-fluoroazetidin-1-yl)methyl)-4-(trifluoromethyl)isoindolin-1-one], the IC50 was no more than 200 nM.

On to `Cn1cnnc1-c1ccccc1-c1cccc(N2Cc3c(cccc3C(F)(F)F)C2=O)c1` [AAK-2, 2-(2′-(4-Methyl-4H-1,2,4-triazol-3-yl)-[1,1′-biphenyl]-3-yl)-4-(trifluoromethyl)isoindolin-1-one], for which the IC50 lay in the range of 200 to 1000 nM.

In the case of `CCNc1cc(-c2c(-c3nncn3C)cnn2C)cc(NC(=O)c2cc(=O)n(CCN3CCCC3)c(C3CC3)n2)n1` [ABL-4, 2-Cyclopropyl-N-(6-(ethylamino)-4-(1-methyl-4-(4-methyl-4H-1,2,4-triazol-3-yl)-1H-pyrazol-5-yl)pyridin-2-yl)-6-oxo-1-(2-(pyrrolidin-1-yl)ethyl)-1,6-dihydropyrimidine-4-carboxamide], the IC50 fell in the range of 10000 to 50000 nM.

On to `Cn1cnnc1-c1ccccc1-c1cccc(N2Cc3c(cc(CN[C@@H]4CCC[C@H]4O)cc3C(F)(F)F)C2=O)c1` [Example W-2, 6-((((1R,2R)-2-Hydroxycyclopentyl)amino)methyl)-2-(2′-(4-methyl-4H-1,2,4-triazol-3-yl)-[1,1′-biphenyl]-3-yl)-4-(trifluoromethyl)isoindolin-1-one], for which the IC50 was no more than 200 nM.

`CCNc1cc(-c2ccccc2-c2nncn2C)cc(N2Cc3c(cc(CN4CCOCC4)cc3C(F)(F)F)C2=O)n1` [AM-2, 2-(6-(Ethylamino)-4-(2-(4-methyl-4H-1,2,4-triazol-3-yl)phenyl)pyridin-2-yl)-6-(morpholinomethyl)-4-(trifluoromethyl)isoindolin-1-one]: the IC50 is no more than 200 nM.

One may read the IC50 as the midpoint of a concentration-inhibition curve.
